Source: US10590114B2, “Compounds, compositions, and methods” (Denali Therapeutics Inc., priority 2016, dated 2020)

Legend:
[1] = Metabolic stability in human liver microsomes; assay type: in vitro ADME; conditions: Table 5; 1 μM compound, 0.5 mg/mL protein, projected human hepatic clearance, well-stirred model
Experimental: Metabolic stability of compounds was evaluated in human liver microsomes (from Corning or XenoTech, LLC) using a 96-well plate assay format. Compounds were incubated at 37° C. at 1 μM final concentration in the microsomal matrix (0.5 mg/mL total protein) in the presence or absence of NADPH cofactor. An NADPH regenerating system, comprised of NADP, MgCl2, isocitric acid, and isocitrate dehydrogenase, was used in the assay. Enzymatic reactions were conducted for 0, 5, 10, 20, 30, or 60 min before termination by addition of acetonitrile containing tolbutamide and labetalol internal standards (100 ng/mL). After shaking for 10 min, plates were subjected to centrifugation (4000 rpm at 4° C.) for 20 min and supernatants were mixed 1:3 with HPLC grade water. Samples were analyzed by LC-MS/MS using appropriate MRM transitions for each analyte and internal standard (IS). Analyte/IS peak area ratios were used to determine percent compound remaining at each time point. Intrinsic clearance (Clint; expressed as mL·min^−1·mg^−1) was calculated from the first order elimination constant (k, min^−1) of test article decay and the volume of the incubation. These values were scaled to intrinsic organ clearance (Clint) using human specific scaling factors (48.8 mg microsomal protein per g liver; 25.7 g liver per kg body weight). […]

MDR1 (P-glycoprotein) = MDR1 (P-glycoprotein) (Homo sapiens (Human), UniProt P08183); test: MDR1-MDCK permeability, bidirectional assay; assay type: in vitro ADME; conditions: MDR1-MDCK cells, efflux ratio, 1 μM, HBSS pH 7.4
Experimental: The blood brain barrier (BBB) separates circulating blood from the extracellular fluid of the central nervous system (CNS). The passive membrane permeability (Papp) and MDR1 (P-glycoprotein) substrate efflux potential were determined using the MDR1-MDCK cell line as an in vitro model of the effective permeability of a compound through the BBB. A bidirectional assay was conducted in pre-plated MDR1-MDCK cells using a 12 or 96-well plate in the absence or presence of MDR1 inhibitor (GF120918 or Valspodar). Assays were run in duplicate in transport buffer (HBSS, pH 7.4) for 90 or 120 min (minutes) at 37° C., using a test article concentration of 1 μM. […] Papp (apparent permeability expressed in cm/sec [centimeter/second]) values were calculated according to the following equation:
[formula] where VR is the solution volume in the receiver chamber (apical or basolateral side), Area is the surface area for the insert membrane), Time is incubation time expressed in seconds, CR is the peak area ratio (analyte/IS) in the receiver chamber, CA is the average of the initial and final concentrations in the donor chamber, and CO is the initial peak area ratio in the donor chamber. Papp was determined in both the apical to basolateral (A→B) and basolateral to apical (B→A) directions. […]

MDR1 (P-glycoprotein), sequence (P08183 whole entry): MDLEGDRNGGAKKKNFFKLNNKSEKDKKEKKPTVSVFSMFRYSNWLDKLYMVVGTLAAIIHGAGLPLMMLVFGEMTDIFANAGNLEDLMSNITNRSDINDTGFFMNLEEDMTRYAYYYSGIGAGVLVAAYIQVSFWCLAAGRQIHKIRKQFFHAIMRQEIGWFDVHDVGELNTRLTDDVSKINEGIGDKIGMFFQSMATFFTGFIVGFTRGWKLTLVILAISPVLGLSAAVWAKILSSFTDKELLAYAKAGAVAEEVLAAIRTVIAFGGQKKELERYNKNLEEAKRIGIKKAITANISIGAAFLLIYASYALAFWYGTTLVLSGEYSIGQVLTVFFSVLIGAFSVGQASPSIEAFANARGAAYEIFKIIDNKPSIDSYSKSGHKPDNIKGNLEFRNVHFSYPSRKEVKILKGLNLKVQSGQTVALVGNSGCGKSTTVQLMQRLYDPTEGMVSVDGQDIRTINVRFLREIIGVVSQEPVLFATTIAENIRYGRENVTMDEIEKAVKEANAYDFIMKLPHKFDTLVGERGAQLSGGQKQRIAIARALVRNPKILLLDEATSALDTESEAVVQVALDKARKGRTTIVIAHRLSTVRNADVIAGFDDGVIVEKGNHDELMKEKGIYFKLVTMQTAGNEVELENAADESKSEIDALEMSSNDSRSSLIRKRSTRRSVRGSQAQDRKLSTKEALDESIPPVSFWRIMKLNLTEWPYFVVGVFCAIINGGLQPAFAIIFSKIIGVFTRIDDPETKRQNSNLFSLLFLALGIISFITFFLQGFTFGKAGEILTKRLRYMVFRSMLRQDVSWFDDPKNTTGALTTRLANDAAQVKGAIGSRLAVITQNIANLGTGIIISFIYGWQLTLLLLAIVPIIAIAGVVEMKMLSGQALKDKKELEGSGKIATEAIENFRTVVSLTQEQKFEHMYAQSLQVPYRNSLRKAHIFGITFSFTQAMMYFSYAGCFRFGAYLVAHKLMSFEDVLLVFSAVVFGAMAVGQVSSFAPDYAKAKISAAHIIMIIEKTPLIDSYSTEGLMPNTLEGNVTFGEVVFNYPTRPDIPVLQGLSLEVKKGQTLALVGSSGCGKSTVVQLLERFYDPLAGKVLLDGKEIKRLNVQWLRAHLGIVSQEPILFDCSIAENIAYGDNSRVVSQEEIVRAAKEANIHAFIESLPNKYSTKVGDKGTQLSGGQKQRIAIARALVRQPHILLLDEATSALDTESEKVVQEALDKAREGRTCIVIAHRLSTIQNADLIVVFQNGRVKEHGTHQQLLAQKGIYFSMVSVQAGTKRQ

Row | Human liver microsomes CLhep [1] [mL/min/kg] | MDR1 ER (MDR1 (P-glycoprotein)) | Structure (SMILES)
1 | 0 | – | CNc1nc(Nc2cn(C(C)(C)c3ncn(C)n3)nc2C)ncc1C(F)(F)F [Compound 218]
2 | – | 42 | CCNc1nc(Nc2cc(C3(C)CCn4ncnc43)nn2C2CC2)ncc1C(F)(F)F (single isomer, unassigned) [Compound 172]
